Assay results as given in publication PMC10426190 (Breast Cancer Research : BCR, 2023).

Tested on: E2-induced (ER target) genes in MCF7
Assay: Gene expression analysis by RNA-sequencing in MCF7 with E2 stimulation
Assay type: cell-based, human
Conditions: MCF7; 1 nM E2 ± 1 μM compound, 24 h
Method: MCF7 were cultured in hormone deprivation media (with 10% charcoal-stripped FBS) for at least 3 days before assay. Trypsinized cells were seeded in a 12-well plate, stimulated with 1 nM β-estradiol (E2), and treated with/without 1 μM compounds for 24 h. Total RNA was extracted using the TRIzol reagent according to the manufacturer’s protocol. RNA purity and quantification were evaluated using the NanoDrop 2000 spectrophotometer (Thermo Scientific, USA). RNA integrity was assessed using the Agilent 2100 Bioanalyzer (Agilent Technologies, Santa Clara, CA, USA). Then the libraries were constructed using TruSeq Stranded mRNA LT Sample Prep Kit (Illumina, San Diego, CA, USA) according to the manufacturer’s instructions. The transcriptome sequencing and analysis were conducted by OE Biotech Co., Ltd. (Shanghai, China). The libraries were sequenced on an Illumina HiSeq X Ten platform and 150 bp paired-end reads were generated. […] Raw data (raw reads) of FASTq format were firstly processed using Trimmomatic and the low-quality reads were removed to obtain the clean reads. […] The clean reads were mapped to the human genome (GRCh38) using HISAT2 [27]. FPKM [28] of each gene was calculated using Cufflinks, and the read counts of each gene were obtained by HTSeqcount. Differential expression analysis was performed using the DESeq (2012) R package.
MCF7 with hormone-deprived pre-treatment were administrated ER ligands or not present with 1 nM E2 stimulation for 24 h incubation in a 12-well plate. Total mRNA was isolated from treated cells and sequenced on an Illumina HiSeq X Ten platform. FPKM of each gene was calculated using Cufflinks and Differential expression genes analysis by using the DESeq (2012) R package. […] T47D EFM-19 and HCC1500 cells were grown in RPMI media supplemented with 10% charcoal-stripped FBS for 14 days and then treated with ER antagonist (1 μM) or DMSO in the presence E2 (1nM) stimulation for 24 h before RNA isolation and gene expression analysis as described in methods. […] The uteruses were harvested 24 h after the final doses and stained by toluidine blue. Endometrial height was assessed from the basement membrane to the luminal border (scale bar in green lines: 200 μm), Arrows indicate the uterine epithelium (e).

C[C@]12CC[C@@H]3c4ccc(O)cc4C[C@@H](CCCCCCCCC[S+]([O-])CCCC(F)(F)C(F)(F)F)[C@H]3[C@@H]1CC[C@@H]2O (some centres unmarked) [Fulvestrant]
ACTG2 expression: 1.20 FPKM
ADCY1 expression: 6.76 FPKM
AGR3 expression: 2.46 FPKM
AMZ1 expression: 0.77 FPKM
ANLN expression: 18.71 FPKM
ARHGAP36 expression: 0.28 FPKM
ASCL1 expression: 0.54 FPKM
ASF1B expression: 26.04 FPKM
ASMTL-2 expression: 1.41 FPKM
ATAD2 expression: 23.77 FPKM
ATRNL1 expression: 0.05 FPKM
AURKB expression: 19.26 FPKM
BIRC5 expression: 23.46 FPKM
BLM expression: 2.45 FPKM
BMPER expression: 0.11 FPKM
BRCA1 expression: 2.96 FPKM
BRCA2 expression: 2.04 FPKM
BRIP1 expression: 17.34 FPKM
BUB1B expression: 8.27 FPKM
C1orf226 expression: 3.74 FPKM
C5AR2 expression: 0.51 FPKM
CA2 expression: 87.89 FPKM
CA12 expression: 18.70 FPKM
CALCR expression: 0.77 FPKM
CAV1 expression: 5.48 FPKM
CCN5 expression: 22.35 FPKM
CCNA2 expression: 15.79 FPKM
CCNE2 expression: 4.70 FPKM
CD99-2 expression: 1.09 FPKM
CDC6 expression: 4.59 FPKM
CDC25A expression: 1.67 FPKM
CDC45 expression: 5.51 FPKM
CDCA3 expression: 6.06 FPKM
CDCA4 expression: 12.74 FPKM
CDCA5 expression: 11.52 FPKM
CDCA7 expression: 1.84 FPKM
CDH26 expression: 0.21 FPKM
CDK1 expression: 14.26 FPKM
CDT1 expression: 21.42 FPKM
CENPI expression: 2.93 FPKM
CENPU expression: 4.96 FPKM
CHAF1B expression: 1.52 FPKM
CHEK1 expression: 2.32 FPKM
CKS1B expression: 46.61 FPKM
CLSPN expression: 1.80 FPKM
COL12A1 expression: 1.73 FPKM
CXCL12 expression: 1.70 FPKM
DDIAS expression: 2.63 FPKM
DHRSX-2 expression: 0.11 FPKM
DKK1 expression: 26.72 FPKM
DNA2 expression: 2.77 FPKM
DPYSL5 expression: 0.36 FPKM
DSCC1 expression: 4.38 FPKM
DTL expression: 1.38 FPKM
E2F1 expression: 7.00 FPKM
E2F2 expression: 1.27 FPKM
E2F7 expression: 2.55 FPKM
E2F8 expression: 3.66 FPKM
ELOVL2 expression: 3.33 FPKM
EME1 expression: 3.73 FPKM
ERCC6L expression: 1.34 FPKM
ESCO2 expression: 2.24 FPKM
ESPL1 expression: 7.73 FPKM
EXO1 expression: 2.15 FPKM
FAM20A expression: 0.46 FPKM
FAM111B expression: 2.82 FPKM
FANCA expression: 9.92 FPKM
FANCD2 expression: 5.42 FPKM
FANCI expression: 16.43 FPKM
FEN1 expression: 24.35 FPKM
FIGNL1 expression: 2.36 FPKM
FKBP4 expression: 43.52 FPKM
GATA4 expression: 0.00 FPKM
GFRA1 expression: 26.23 FPKM
GINS1 expression: 8.52 FPKM
GINS2 expression: 8.09 FPKM
GJA1 expression: 0.06 FPKM
GLA expression: 31.47 FPKM
GP1BB expression: 0.79 FPKM
GPR68 expression: 0.13 FPKM
GPRIN1 expression: 2.95 FPKM
GREB1 expression: 3.94 FPKM
H2AX expression: 89.38 FPKM
HBB expression: 0.00 FPKM
HELLS expression: 2.89 FPKM
HEY2 expression: 0.43 FPKM
HMGB2 expression: 118.94 FPKM
IGFBP4 expression: 26.82 FPKM
IGSF1 expression: 3.55 FPKM
ITGA2B expression: 0.30 FPKM
KIF11 expression: 11.20 FPKM
KIF18B expression: 4.13 FPKM
KIFC1 expression: 12.36 FPKM
KLK11 expression: 1.75 FPKM
KNL1 expression: 3.41 FPKM
KNTC1 expression: 5.81 FPKM
LHX2 expression: 1.30 FPKM
LIG1 expression: 19.47 FPKM
LMNB1 expression: 49.03 FPKM
MAD2L1 expression: 6.32 FPKM
MCM2 expression: 24.98 FPKM
MCM3 expression: 30.18 FPKM
MCM4 expression: 38.73 FPKM
MCM5 expression: 9.71 FPKM
MCM6 expression: 18.69 FPKM
MCM7 expression: 65.17 FPKM
MCM10 expression: 2.51 FPKM
MELK expression: 9.66 FPKM
MKI67 expression: 19.11 FPKM
MYB expression: 3.86 FPKM
MYBL1 expression: 0.96 FPKM
MYBL2 expression: 29.90 FPKM
NCAPG2 expression: 15.05 FPKM
NCAPG expression: 5.76 FPKM
NPY1R expression: 3.20 FPKM
ORC1 expression: 2.67 FPKM
ORC6 expression: 5.57 FPKM
PAQR4 expression: 9.57 FPKM
PBK expression: 14.24 FPKM
PCLAF expression: 28.12 FPKM
PCNA expression: 48.34 FPKM
PDZK1 expression: 0.47 FPKM
PGR expression: 0.52 FPKM
PKIB expression: 16.14 FPKM
PKMYT1 expression: 9.90 FPKM
POLA1 expression: 2.69 FPKM
POLA2 expression: 4.51 FPKM
POLD1 expression: 11.19 FPKM
POLE2 expression: 2.45 FPKM
POLE expression: 11.56 FPKM
POLQ expression: 2.64 FPKM
PRIM1 expression: 7.88 FPKM
PRSS23 expression: 49.30 FPKM
RAB31 expression: 6.58 FPKM
RAD51AP1 expression: 5.24 FPKM
RAD51 expression: 3.28 FPKM
RAD54L expression: 3.44 FPKM
RAMP3 expression: 0.40 FPKM
RAPGEFL1 expression: 2.18 FPKM
RBL1 expression: 2.06 FPKM
RECQL4 expression: 10.79 FPKM
RERG expression: 2.17 FPKM
RET expression: 1.74 FPKM
RFC2 expression: 14.47 FPKM
RFC3 expression: 3.82 FPKM
RFC4 expression: 10.05 FPKM
RNASEH2A expression: 24.71 FPKM
RRM1 expression: 19.08 FPKM
RRM2 expression: 24.81 FPKM
RUBCNL expression: 0.10 FPKM
SDK2 expression: 0.25 FPKM
SFXN2 expression: 7.17 FPKM
SHCBP1 expression: 2.87 FPKM
SKA3 expression: 4.69 FPKM
SLC6A14 expression: 8.71 FPKM
SMC2 expression: 6.16 FPKM
SPC24 expression: 6.59 FPKM
SPC25 expression: 6.79 FPKM
STC2 expression: 28.34 FPKM
TACC3 expression: 19.06 FPKM
TCF19 expression: 6.28 FPKM
TCOF1 expression: 9.75 FPKM
TGM2 expression: 0.56 FPKM
TICRR expression: 3.71 FPKM
TK1 expression: 42.16 FPKM
TMEM26 expression: 0.84 FPKM
TMEM164 expression: 6.22 FPKM
TONSL expression: 9.44 FPKM
TOP2A expression: 29.21 FPKM
TP73 expression: 1.03 FPKM
TRIP13 expression: 6.92 FPKM
TUBA1B expression: 473.72 FPKM
TUBB expression: 230.78 FPKM
TYMS expression: 25.13 FPKM
UBE2C expression: 32.42 FPKM
UBE2T expression: 45.52 FPKM
UHRF1 expression: 6.71 FPKM
UNG expression: 29.02 FPKM
WDHD1 expression: 4.38 FPKM
WDR62 expression: 5.55 FPKM
WDR76 expression: 1.69 FPKM
XRCC2 expression: 2.48 FPKM
XRCC3 expression: 5.83 FPKM
ZGRF1 expression: 1.75 FPKM
ZNF367 expression: 4.18 FPKM
